In patent US7674802B2, “N-linked aryl heteroaryl inhibitors of LTA4H for treating inflammation” (deCODE genetics, ehf, priority 2005, dated 2010):
Where a name gives a salt, the structure may show the parent alone. Read-outs that look alike come from different tables or passages of the source.

Experiments:
human LTA4 hydrolase = molecular target: T1, human LTA4 hydrolase (Homo sapiens, UniProt P09960); experiment: In vitro assay testing inhibitory activity against purified recombinant human LTA4 hydrolase; format: biochemical
T1 construct: A human LTA4 hydrolase full-length cDNA clone (NM_000895) was purchased; His tag (own knowledge: pDEST17 adds an N-terminal 6xHis); made in house; host or cells: Escherichia coli BL21-AI
T1 sequence (P09960 1-611): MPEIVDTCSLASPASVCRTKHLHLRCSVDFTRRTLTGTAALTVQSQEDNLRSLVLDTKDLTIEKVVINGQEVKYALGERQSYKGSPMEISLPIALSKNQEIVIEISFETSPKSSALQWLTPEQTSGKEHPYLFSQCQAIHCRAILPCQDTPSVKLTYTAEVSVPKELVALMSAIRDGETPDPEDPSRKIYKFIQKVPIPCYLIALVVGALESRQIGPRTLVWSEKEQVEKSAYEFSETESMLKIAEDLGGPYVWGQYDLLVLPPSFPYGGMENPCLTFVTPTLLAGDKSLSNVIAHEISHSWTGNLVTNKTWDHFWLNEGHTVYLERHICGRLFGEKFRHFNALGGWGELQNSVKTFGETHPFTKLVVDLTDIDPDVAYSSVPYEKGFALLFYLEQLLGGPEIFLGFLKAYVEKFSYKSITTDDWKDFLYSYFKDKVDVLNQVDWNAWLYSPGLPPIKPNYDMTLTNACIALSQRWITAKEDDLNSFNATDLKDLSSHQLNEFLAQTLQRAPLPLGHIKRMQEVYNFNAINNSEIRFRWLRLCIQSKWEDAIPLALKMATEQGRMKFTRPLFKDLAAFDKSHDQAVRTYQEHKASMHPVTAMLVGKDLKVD
Excerpt: (1) In vitro Assay Testing Inhibitory Activity Against Purified Recombinant Human LTA4 Hydroase:
A human LTA4 hydrolase full-length cDNA clone (NM_000895) was purchased from OriGene Technologies (Rockville, Md.). The gene was amplified by polmerase chain reaction and transferred via pDONR201 into the bacterial expression vector pDEST17 by recombination (both plasmids from Invitrogen, Carlsbad, Calif.). The resulting construct was transformed into Escherichia coli BL21-AI (Invitrogen), and expression was induced by chemical induction with arabinose. The recombinant enzyme was purified by chromatography on a FPLC system (Amersham Biosciences, Uppsala, Sweden) using immobilized metal affinity chromatography (Ni-NTA Superflow, Qiagen, Hilden, Germany) and anion exchange chromatography (MonoQ HR 10/10, Amersham Biosciences).
(§1) The compounds of the invention were incubated in a series of dilutions with 200 nM of recombinant enzyme in assay buffer (100 mM Tris-HCl, 100 mM NaCl, 5 mg/ml fatty-acid free BSA, 10% DMSO, pH 8.0) for 10 min at room temperature to allow binding between LTA4 hydrolase and the inhibitors. LTA4 was prepared by alkaline hydrolysis of LTA4 methyl ester (Biomol, Plymouth Meeting, Pa., or Cayman Chemicals, Ann Arbor, Mich.). A solution of 10 μg of the ester was dried under a nitrogen stream and redissolved in 60 μl of a solution of 80% aceton and 20% 0.25 M NaOH.
After incubation for 40 min at room temperature the resulting approximately 500 μM tock of LTA4 was kept at −80° C. for no more than a few days prior to use.
Immediately before the assay, LTA4 was diluted to a concentration of 10 μM in assay buffer (without DMSO) and added to the reaction mixture to a final concentration of 2 μM to initiate the enzyme reaction. After incubation for 120 sec at room temperature, the reaction was stopped by ading 2 volumes of chilled quenching buffer, containing acetonitril with 1% acetic acid and 225 nM LTB4-d4 (Biomol). The samples were then kept at 4° C. over night to complete protein precipitation and centrifuged for 15 min at 1800 g. LTB4 formed was measured by LC-MS/MS using LTB4-d4 as an internal standard and an external LTB4 standard (Biomol) as reference. Briefly, the analyte was separated from LTB4 isomers formed by spontaneous hydrolysis of LTA4 using isocratic elution (modified protocol from Mueller et al. (1996), J. Biol. Chem. 271, 24345-24348) on a HPLC system (Waters, Milford, Mass.) and analyzed on a tandem quadrupole mass spectrometer (Waters). MRM transitions followed on 2 channels were 335.2>195.3 (LTB4) and 339.2>197.3 (LTB4-d4). Based on the amounts of LTB4 found at each inhibitor concentration, a dose-response curve was fitted to the data and an IC50 value was calculated.
as §1, with “NaOH. After incubation for 40 min at room temperature the resulting approximately 500 μM tock of LTA4 was kept at −80° C. for no more than a few days prior to use.” for “NaOH.”

[1] = system: ionophore-induced LTB4 production; conditions: oral administration; cited from earlier work
[2] = eight weeks of treatment, primate model; cited from earlier work
[3] = system: ionophore-induced LTB4 production; conditions: oral administration; cited from earlier work; remark: listed apart in the source
[4] = Table V, read-out: hLTA4H Enzyme IC50
[5] = Table II, read-out: IC50 (μM)(hLTA4H)
[6] = Table IV, read-out: hLTA4H Enyzme IC 50
[7] = Table I, read-out: IC50 (μM) (hLTA4H)
[8] = Table III, read-out: IC50 (μM) (hLTA4H)

In the case of `CC1Cc2ccccc2N1c1ccc(OC[C@H]2CCCN2)cc1` (stereo partly shown), the IC50 (human LTA4 hydrolase; [4]) is reported as greater than 20 µM.
In the case of `O=C(O)C1CCN(CCCOc2ccc(-n3nc4ccccc4c3Cl)cc2)CC1` [Example 8, 1-{3-[4-(3-Chloro-indazol-2-yl)-phenoxy]-propyl}-piperidine-4-carboxylic acid hydrochloride], the IC50 (human LTA4 hydrolase; [5]) is reported as less than 5 µM and the IC50 (human LTA4 hydrolase; [6]) is reported as less than 5 µM.
With `O=C1c2ccccc2C(=O)N1c1ccc(OC[C@H]2CCCN2)cc1` the IC50 (human LTA4 hydrolase; [4]) was less than 5 µM.
`Cc1cn(-c2ccc(OC[C@H]3CCCN3)cc2)c2ccccc12` gave an IC50 (human LTA4 hydrolase; [4]) greater than 20 µM.
`CNCCCOc1ccc(-n2nc3ccccc3c2Cl)cc1` [Example 4, {3-[4-(3-Chloro-indazol-2-yl)-phenoxy]-propyl}-methyl-amine hydrochloride] showed an IC50 (human LTA4 hydrolase; [7]) of less than 5 µM and an IC50 (human LTA4 hydrolase; [6]) of less than 5 µM.
Compound `O=C(O)CCCN1CCC[C@H]1COc1ccc(-n2nc3ccccc3c2Cl)cc1` [Example 19, 4-{(S)-2-[4-(3-Chloro-indazol-2-yl)-phenoxymethyl]-pyrrolidin-1-yl}-butyric acid Hydrochloride] has an IC50 (human LTA4 hydrolase; [8]) of less than 5 µM and an IC50 (human LTA4 hydrolase; [6]) of less than 5 µM.
In the case of `O=C1c2ccccc2C(=O)N1c1ccc(OCCN2CCCCC2)cc1`, the IC50 (human LTA4 hydrolase; [4]) is reported as less than 5 µM.
For `NC(=O)C1CCN(CCCOc2ccc(-n3nc4ccccc4c3Cl)cc2)CC1` [Example 10, 1-{3-[4-(3-Chloro-indazol-2-yl)-phenoxy]-propyl}-piperidine-4-carboxylic acid amide], the IC50 (human LTA4 hydrolase; [5]) was less than 5 µM and the IC50 (human LTA4 hydrolase; [6]) was less than 5 µM.
Compound `CN(CCOc1ccc(-n2nc3ccccc3c2Cl)cc1)CCC(=O)O` [Example 2, 3-({2-[4-(3-Chloro-indazol-2-yl)-phenoxy]-ethyl}-methyl-amino)-propionic acid hydrochloride] has an IC50 (human LTA4 hydrolase; [7]) of less than 5 µM and an IC50 (human LTA4 hydrolase; [6]) of less than 5 µM.
Compound `c1ccc2c(c1)cnn2-c1ccc(OC[C@H]2CCCN2)cc1` has an IC50 (human LTA4 hydrolase; [4]) of 5 to 20 µM.
`O=C(O)CN1CCC[C@H]1COc1ccc(-n2nc3ccccc3c2Cl)cc1` [Example 18, {(S)-2-[4-(3-Chloro-indazol-2-yl)-phenoxymethyl]-pyrrolidin-1-yl}-acetic acid Hydrochloride] showed an IC50 (human LTA4 hydrolase; [8]) of less than 5 µM and an IC50 (human LTA4 hydrolase; [6]) of less than 5 µM.
`O=C(O)CCN1CCC[C@@H]1COc1ccc(-n2nc3ccccc3c2Cl)cc1` [Example 16, 3-{(R)-2-[4-(3-Chloro-indazol-2-yl)-phenoxymethyl]-pyrrolidin-1-yl}-propionic acid Hydrochloride] showed an IC50 (human LTA4 hydrolase; [8]) of less than 5 µM and an IC50 (human LTA4 hydrolase; [6]) of less than 5 µM.
In the case of `O=C(O)CCCN1CCC[C@@H]1COc1ccc(-n2nc3ccccc3c2Cl)cc1` [Example 17, 4-{(R)-2-[4-(3-Chloro-indazol-2-yl)-phenoxymethyl]-pyrrolidin-1-yl}-butyric acid Hydrochloride], the IC50 (human LTA4 hydrolase; [8]) is reported as less than 5 µM and the IC50 (human LTA4 hydrolase; [6]) is reported as less than 5 µM.
In the case of `Clc1c2ccccc2nn1-c1ccc(OC[C@H]2CCCN2)cc1` [Example 12, 3-Chloro-2-[4-((R)-1-pyrrolidin-2-ylmethoxy)-phenyl]-2H-indazole], the IC50 (human LTA4 hydrolase; [8]) is reported as less than 5 µM and the IC50 (human LTA4 hydrolase; [6]) is reported as less than 5 µM.
In the case of `Clc1c2ccccc2nn1-c1ccc(OCCN2CCCCC2)cc1` [Example 1, 3-Chloro-2-[4-(2-piperidin-1-yl-ethoxy)-phenyl]-2H-idazole], the IC50 (human LTA4 hydrolase; [5]) is reported as less than 5 µM and the IC50 (human LTA4 hydrolase; [6]) is reported as less than 5 µM.
Compound `CN(CCCOc1ccc(-n2nc3ccccc3c2Cl)cc1)CCCC(=O)O` [Example 6, 4-({3-[4-(3-Chloro-indazol-2-yl)-phenoxy]-propyl}-methyl-amino)butyric acid Hydrochloride] has an IC50 (human LTA4 hydrolase; [7]) of less than 5 µM and an IC50 (human LTA4 hydrolase; [6]) of less than 5 µM.
`O=C(O)CN1CCC[C@@H]1COc1ccc(-n2nc3ccccc3c2Cl)cc1` [Example 15, {(R)-2-[4-(3-Chloro-indazol-2-yl)-phenoxymethyl]-pyrrolidin-1-yl}-acetic acid Hydrochloride] showed an IC50 (human LTA4 hydrolase; [8]) of less than 5 µM and an IC50 (human LTA4 hydrolase; [6]) of less than 5 µM.
`OCC1CCN(CCCOc2ccc(-n3nc4ccccc4c3Cl)cc2)CC1` [Example 11, (1-{3-[4-(3-Chloro-indazol-2-yl)-phenoxy]-propyl}-piperidin-4-yl)-methanol] gave an IC50 (human LTA4 hydrolase; [5]) of less than 5 µM and an IC50 (human LTA4 hydrolase; [6]) of less than 5 µM.
`CNC(=O)C1CCN(CCCOc2ccc(-n3nc4ccccc4c3Cl)cc2)CC1` [Example 9, 1-{3-[4-(3-Chloro-indazol-2-yl)-phenoxy]-propyl}-piperidine-4-carboxylic acid methylamide] gave an IC50 (human LTA4 hydrolase; [5]) of less than 5 µM and an IC50 (human LTA4 hydrolase; [6]) of less than 5 µM.
In the case of `CN(CCCOc1ccc(Cc2ccccc2)cc1)CCC(=O)O.Cl` [SC57461], the “inhibition of ionophore-induced LTB4 production in rat peritoneum in vivo” value [1] is listed as “inhibition of ionophore-induced LTB4 production”, the colitis symptoms [2] is listed as “significantly improved colitis symptoms” and the “inhibition of ionophore-induced LTB4 production in mouse blood ex vivo” value [3] is listed as “inhibition of ionophore-induced LTB4 production”.
With `CN1CCC[C@@H]1COc1ccc(N2Cc3ccccc3C2)cc1` the IC50 (human LTA4 hydrolase; [4]) was 5 to 20 µM.
In the case of `Clc1c2ccccc2nn1-c1ccc(OC[C@@H]2CCCN2)cc1` [Example 13, 3-Chloro-2-[4-((S)-1-pyrrolidin-2-ylmethoxy)-phenyl]-2H-indazole hydrochloride], the IC50 (human LTA4 hydrolase; [8]) is reported as less than 5 µM and the IC50 (human LTA4 hydrolase; [6]) is reported as less than 5 µM.
`CN(CCCC(=O)O)CCOc1ccc(-n2nc3ccccc3c2Cl)cc1` [Example 3, 4-({2-[4-(3-Chloro-indazol-2-yl)-phenoxy]-ethyl}-methyl-amino)butyric acid hydrchloride salt] showed an IC50 (human LTA4 hydrolase; [7]) of less than 5 µM and an IC50 (human LTA4 hydrolase; [6]) of less than 5 µM.
In the case of `CN(CCCOc1ccc(-n2nc3ccccc3c2Cl)cc1)CCC(=O)O` [Example 5, 3-({3-[4-(3-Chloro-indazol-2-yl)-phenoxy]-propyl}-methyl-amino)-propionic acid hydrochloride salt], the IC50 (human LTA4 hydrolase; [7]) is reported as less than 5 µM and the IC50 (human LTA4 hydrolase; [6]) is reported as less than 5 µM.
